Data: patent publication US8168596B2, “Use of cycloartane compounds for treating arthritis” (NuLiv Holding Inc., priority 2008, dated 2012)

How the values were obtained:
MMP1 [1] = details: UO126 10 μM, SP600125 25 μM, SB203580 5 μM, 24 h, then PMA 100 ng/mL 24 h
Method: The SW1353 cells were grown at 37° C. in a humidified incubator under 5% CO2 and 95% air in the culture medium as described above. The SW1353 cells were then sub-cultured into 6-well culture plates with serum free medium at an average amount of 2×10^5 cells per well and incubated for 24 hours. Then, the SW1353 cells were treated with 10 μM UO126 (MEK1-specific inhibitor), 25 μM, SP600125 (JNK-specific inhibitor), 5 μM SB203580 (p38-specific inhibitor), or 20 μM LY294002 (PI3K kinase inhibitor), and incubated for another 24 hours. Later, the SW1353 cells were treated with 100 ng/mL PMA and again incubated for 24 hours. Finally, the SW1353 cells were under cell extraction and the cell lysate was used for further luciferase analysis and western blotting analysis.
The SW1353 cells were grown at 37° C. in a humidified incubator under 5% CO2 and 95% air in the culture medium as described above. The SW1353 cells were then sub-cultured into 24-well culture plates and cultured for 24 hours. […] Following cell extraction, the cell lysate was centrifuged at 4° C., 20000 g for 30 minutes and then transferred to a 1.5 ml-microcentrifuge tube. Then, 100 μl buffer A (0.1 mM luciferin) and 350 μl buffer B (1 M MgSO4, 1 M Hepes (pH 7.8), 0.1 M ATP) were added into the microcentrifuge tube. The luciferase activity of final mixture was measured by a luminometer for 30 seconds.

MMP1 [2] = assay: Western blotting, kinase inhibitors on MMP1 protein expression induced by PMA in SW1353 cells; type: cell-based, human; details: UO126 10 μM, SP600125 25 μM, 24 h, then PMA 100 ng/mL 24 h
Method: Western blotting analysis was carried out based on the following procedure. Cells were washed and lysed in 0.2 mL of lysis buffer (1% NP-40, 50 mM Tris-HCl, pH 7.4, 180 mM NaCl, 1 mM EDTA, 1 mM PMSF, 1 mM NaF, 10 mM Na3VO4) for 30 min at 4° C. After centrifugation at 17500 g for 15 min, the supernatants of cell lysate were collected. Protein concentrations of the samples were measured using the bicinchoninic acid (BCA) protein assay kit according to the manufacturer's protocol (Pierce, Rockford, Ill., USA). Equal amounts of protein samples of concentrated conditioned medium (100 μg) or cell lysate supernatants (50 μg) were mixed with an appropriate volume of 4×SDS sampling buffer and separated on a 8% SDS-PAGE gel. The protein bands separated on the SDS-PAGE gel were blotted onto a polyvinylidene fluoride (PVDF) membrane. The blotted PVDF membrane was washed twice and blocked in freshly prepared Tris-buffered saline (TBS) containing 0.1% Tween-20 and 7% skim milk (TBST) for 2 hours at room temperature. The PVDF membrane was then incubated with a primary antibody against MMP1 protein (Santa Cruz Biotechnology, Santa Cruz, Calif.) for 18 hours at 4° C. Horseradish peroxidase-conjugated anti-goat antibody was used as the secondary antibody. Signals were visualized by an enhanced chemiluminescence kit (Clonetech, Palo Alto, Calif., USA) followed by exposure to X-ray films. […]

## N#CC(=C(/N)Sc1ccccc1N)/C(C#N)=C(/N)Sc1ccccc1N [UO126]
MMP1 [1]
  luciferase activity (control group 1 fold, PMA-only group 8 fold): 2.6 fold
MMP1 [2]
  protein expression by western blotting (effect of kinase inhibitors on MMP1 protein expression induced by PMA): significantly reduced
